Source: patent publication US20240317762A1, “PHTHALAZINONE-BASED PARP-1 INHIBITORS” (Oregon Health & Science University, priority 2021, published 2024)

How the values were obtained:
R878A PARP-1 = R878A PARP-1 (Homo sapiens, UniProt P09874, R878A); test: catalytic activity of PARP-1 mutant expressed in HEK 293 cells, R878A; format: biochemical; details: 3 μM AZ0108
D770A PARP-1 = D770A PARP-1 (Homo sapiens, UniProt P09874, D770A); test: fluorescence polarization DNA competition and affinity assays, D770A mutant; format: binding
Procedure: FIG. 4B) Helical domain (pink cartoon) movement observed during the simulation, the red arrows indicate length and direction of movement. FIG. 4C) The residue-residue distance observed between the Ca atoms R878-D770 and Y889-V758, the increased distance sampling corresponds to the helical domain movement. FIG. 4D) PARP-1 WT, D770A, or R878A (40 nM) was incubated with a dumbbell DNA probe carrying an internal FAM group and a central nick at 20 nM with or without compound (25 μM) for 30 minutes. An unlabeled competitor was added and the decrease in fluorescence polarization was measured across time. FIG. 4E) The Kd of PARP-1 WT, D770A, or R878A for a DNA dumbbell probe containing a central nick (5 nM) was measured in a fluorescence polarization assay with and without inhibitor (5 μM). Error bars represent Standard Error of the Mean (SEM) (n=3).

PARP-1 = PARP-1 (Homo sapiens, UniProt P09874); test: PARP-1 auto-PARylation activity assay in cells; format: cell-based
Procedure: Cells were washed with PBS, and lysed in RIPA buffer (50 mM Tris-HCl [pH 8.0], 150 mM NaCl, 0.1% SDS, 1% Triton X-100, 1× cOmplete™ protease inhibitors (Roche), and 1 μM Veliparib). […] Following quantification, 4× Laemmli sample buffer with 5% β-mercaptoethanol was added to 25-50 μg of protein.
Membrane blots were blocked with 5% milk-PBST for 1 h at RT, followed by incubation with a rabbit pan-ADP-ribose binding reagent (Cell Signaling), a rabbit PARP-1 antibody (Bethyl Laboratories), or a mouse b-actin antibody (Santa Cruz Biotechnology) for 2 h at RT, followed by incubation with HRP-conjugated secondary antibodies. […] Blots were imaged for chemiluminescent signal on a ChemiDoc MP system (BioRad). Statistical significance was established through multiple unpaired t-tests with nonlinear regression fit analysis.
FIGS. 5A-5F. […] An unlabeled competitor was added and the decrease in fluorescence polarization was measured across time. […] Error bars represent SEM. […] Error bars represent SEM. […] Cells were subsequently lysed using RIPA buffer, run out on SDS-PAGE, and probed for ADPr (Cell Signaling) and PARP-1 (Bethyl Laboratories). FIG. 5F) Quantification of western blot images. ADPr values are normalized to PARP-1 within each replicate and plotted as percentage compared to DMSO. Error bars indicate SEM (n=3).

Chain of D770A PARP-1 (P09874 whole entry D770A, the tested form may be a part): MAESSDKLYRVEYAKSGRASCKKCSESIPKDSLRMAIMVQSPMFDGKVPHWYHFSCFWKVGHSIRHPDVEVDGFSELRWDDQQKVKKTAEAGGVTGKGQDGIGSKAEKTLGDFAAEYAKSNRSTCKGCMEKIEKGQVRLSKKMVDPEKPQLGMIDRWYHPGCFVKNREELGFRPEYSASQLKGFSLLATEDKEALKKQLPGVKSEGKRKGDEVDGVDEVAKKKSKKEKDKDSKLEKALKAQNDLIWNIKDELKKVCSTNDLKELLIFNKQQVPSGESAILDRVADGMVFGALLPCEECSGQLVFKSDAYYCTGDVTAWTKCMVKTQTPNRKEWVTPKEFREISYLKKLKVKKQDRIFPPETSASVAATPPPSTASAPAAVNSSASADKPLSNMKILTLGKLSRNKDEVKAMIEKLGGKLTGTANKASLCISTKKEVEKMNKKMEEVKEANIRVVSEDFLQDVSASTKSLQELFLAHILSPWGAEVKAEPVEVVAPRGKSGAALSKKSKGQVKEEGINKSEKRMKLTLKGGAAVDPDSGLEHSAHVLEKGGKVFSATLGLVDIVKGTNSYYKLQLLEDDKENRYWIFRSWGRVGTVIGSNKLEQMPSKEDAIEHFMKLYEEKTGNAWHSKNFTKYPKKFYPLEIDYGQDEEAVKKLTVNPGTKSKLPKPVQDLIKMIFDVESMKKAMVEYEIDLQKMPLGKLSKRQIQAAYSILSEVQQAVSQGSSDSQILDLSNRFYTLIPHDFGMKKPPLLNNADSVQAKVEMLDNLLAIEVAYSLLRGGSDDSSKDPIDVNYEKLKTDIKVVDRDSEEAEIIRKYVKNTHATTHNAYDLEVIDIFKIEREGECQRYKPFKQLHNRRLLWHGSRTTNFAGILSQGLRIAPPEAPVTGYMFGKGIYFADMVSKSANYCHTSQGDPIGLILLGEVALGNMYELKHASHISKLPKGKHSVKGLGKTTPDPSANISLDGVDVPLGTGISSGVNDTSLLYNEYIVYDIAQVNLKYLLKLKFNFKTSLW
Chain of PARP-1 (P09874 whole entry): as the sequence (P09874 whole entry D770A, the tested form may be a part) above, with A770D counted along it
Chain of R878A PARP-1 (P09874 whole entry R878A): as the sequence (P09874 whole entry D770A, the tested form may be a part) above, with A770D, R878A counted along it

inhibition of R878A PARP-1 activity (R878A PARP-1): inhibited | D770A PARP-1's affinity for DNA (D770A PARP-1; 5 μM inhibitor): nor did it change | exchange of the D770A PARP-1:labled DNA with unlabeled DNA (D770A PARP-1; 25 μM compound): did not impact | EC50 (PARP-1; 30 min inhibitor, then PARG inhibitor PDD00017273, read-out: EC50 inhibiting PARP-1 PARylation in HEK 293 cells): 42.5 nM | IC50 (PARP-1; FIG. 5F, nonlinear regression, read-out: IC50 of dose curves, quantification of western blot (ADPr normalized to PARP-1)): 42.5 nM
Substance: (S)-4-(difluoro(3-(6-methyl-3-(trifluoromethyl)-5,6,7,8-tetrahydro-[1,2,4]triazolo[4,3-a]pyrazine-7-carbonyl)phenyl)methyl)phthalazin-1(2H)-one [AZ0108]
